One may read the IC50 as the concentration at which inhibition is half-maximal.

Structures are written as SMILES. Some results are limits rather than exact numbers.

The experiment has as its target T1, Capsid scaffolding protein (Human cytomegalovirus (strain AD169) (HHV-5) (Human herpesvirus 5), UniProt P16753).
T1 sequence (P16753 whole entry): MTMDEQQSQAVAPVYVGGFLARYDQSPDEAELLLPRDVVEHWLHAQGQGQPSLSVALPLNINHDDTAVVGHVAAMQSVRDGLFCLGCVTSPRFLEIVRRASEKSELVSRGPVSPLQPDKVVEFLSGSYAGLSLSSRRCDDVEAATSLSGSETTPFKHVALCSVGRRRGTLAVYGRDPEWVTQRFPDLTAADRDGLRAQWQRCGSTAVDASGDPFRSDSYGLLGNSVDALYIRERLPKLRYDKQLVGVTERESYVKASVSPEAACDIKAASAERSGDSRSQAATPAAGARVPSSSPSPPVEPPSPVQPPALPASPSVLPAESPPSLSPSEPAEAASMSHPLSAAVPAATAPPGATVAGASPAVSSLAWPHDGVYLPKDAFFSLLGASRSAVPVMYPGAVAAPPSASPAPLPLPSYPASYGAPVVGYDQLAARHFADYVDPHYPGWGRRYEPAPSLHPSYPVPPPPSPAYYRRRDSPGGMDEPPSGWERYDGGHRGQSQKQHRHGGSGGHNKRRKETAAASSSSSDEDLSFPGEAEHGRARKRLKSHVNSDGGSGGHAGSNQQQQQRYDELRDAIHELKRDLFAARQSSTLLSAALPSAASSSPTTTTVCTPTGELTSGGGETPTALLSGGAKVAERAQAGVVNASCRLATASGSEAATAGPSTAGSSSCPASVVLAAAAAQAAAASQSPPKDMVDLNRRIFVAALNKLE
Description: Inhibitory activity against human cytomegalovirus (HCMV) protease was evaluated. More on the design: species or system Human betaherpesvirus 5.
On to `CCOC(=O)c1ccc2c(c1)C(=O)C=C(c1ccc([N+](=O)[O-])cc1)S2(=O)=O`, for which the half-inhibitory concentration (IC50) was found to be 180 nM.

In turn, `Cc1cccc2c1S(=O)(=O)C(c1ccc([N+](=O)[O-])cc1)=CC2=O` had a half-inhibitory concentration (IC50) of 110 nM.

As for `O=C1C=C(c2ccc[n+]([O-])c2)S(=O)(=O)c2ccccc21`, the IC50 was found to be 600 nM.

`O=C1C=C(c2ccsc2)S(=O)(=O)c2ccccc21` displayed a concentration for half-maximal inhibition (IC50) of more than 34000 nM.

With `CC(C)(C)C1=CC(=O)c2ccccc2S1(=O)=O`, the IC50 was more than 34000 nM.

As for `O=c1cc(-c2cccnc2)sc2ccccc12`, the IC50 was more than 34000 nM.

Consider `O=C1C=C(c2ccc([N+](=O)[O-])cc2)S(=O)(=O)c2ccccc21`, for which the concentration for half-maximal inhibition (IC50) was determined as 60 nM.

The compound `O=C1C=C(c2ccncc2)S(=O)(=O)c2ccccc21` had an IC50 of 100 nM. Compared with the last compound, the IC50 is about 1.7-fold higher.

The compound `CS(=O)(=O)c1ccc(-c2cc(=O)c3ccccc3s2)cc1` gave a half-maximal inhibitory concentration (IC50) of more than 34000 nM.

As for `CC(C)c1cccc2c1S(=O)(=O)C(c1ccc([N+](=O)[O-])cc1)=CC2=O`, half-maximal inhibition (IC50) required 180 nM.

As for `O=C1C=C(c2ccccc2)S(=O)(=O)c2ccccc21`, the midpoint of inhibition, the IC50, lay at 1500 nM.

Turning to `O=c1cc(-c2ccccc2)sc2ccccc12`, the concentration for half-maximal inhibition (IC50) was more than 34000 nM.

As to `CS(=O)(=O)c1ccc(C2=CC(=O)c3ccccc3S2(=O)=O)cc1`, inhibition was half-maximal at 100 nM (IC50).

`CCCCCCCC1=CC(=O)c2ccccc2S1(=O)=O` came in with a half-inhibitory concentration (IC50) of 1400 nM. This IC50 lies about 14-fold higher than the previous one.

In turn, `O=C1C=C(c2ccc(-c3ccccc3)cc2)S(=O)(=O)c2ccccc21` registered a half-inhibitory concentration (IC50) of 60 nM.

The compound `O=C1C=C(c2cccs2)S(=O)(=O)c2ccccc21` returned an IC50 of 460 nM. Compared with the last compound, the IC50 is about 7.7-fold higher.

Regarding `O=C1C=C(c2cccnc2)S(=O)(=O)c2ccccc21`, the IC50 turned out to be 200 nM.

`O=C1C=C(c2cc[n+]([O-])cc2)S(=O)(=O)c2ccccc21` yielded an IC50 of 600 nM.

The compound `Cc1cccc2c1C(=O)C=C(c1ccc([N+](=O)[O-])cc1)S2(=O)=O` registered an IC50 of 100 nM. This IC50 lies about 6-fold lower than the previous one.

For `O=c1cc(-c2ccccc2)[s+]([O-])c2ccccc12` (stereo not given), it took 10000 nM to reach half-maximal inhibition (IC50).

The values are drawn from ChEMBL document CHEMBL1130727, “Benzothiopyran-4-one based reversible inhibitors of the human cytomegalovirus (HCMV) protease” (Bioorg Med Chem Lett, 1998).
